Assay results taken from ChEMBL document CHEMBL4145494, “Synthesis and biological evaluation of aurora kinases inhibitors based on N-trisubstituted pyrimidine scaffold” (Eur J Med Chem, 2018).

What was measured:
[1] = test system: U-937; assay: Antiproliferative activity against human U937 cells after 48 hrs by CCK8 assay; format: functional, cell-based; conditions: U-937, 48 h
[2] = test system: HeLa; assay: Antiproliferative activity against human HeLa cells after 48 hrs by CCK8 assay; format: functional, cell-based
[3] = test system: HCT-116; assay: Antiproliferative activity against human HCT116 cells after 48 hrs by CCK8 assay; format: functional, cell-based; conditions: HCT-116, 48 h
[4] = molecular target: Aurora kinase B (Homo sapiens, UniProt Q96GD4); assay: Inhibition of AURKB (unknown origin) using FAM-labeled peptide substrate preincubated for 10 mins followed by substrate addition measured after 60 mins by caliper assay
Aurora kinase B, sequence (Q96GD4 whole entry): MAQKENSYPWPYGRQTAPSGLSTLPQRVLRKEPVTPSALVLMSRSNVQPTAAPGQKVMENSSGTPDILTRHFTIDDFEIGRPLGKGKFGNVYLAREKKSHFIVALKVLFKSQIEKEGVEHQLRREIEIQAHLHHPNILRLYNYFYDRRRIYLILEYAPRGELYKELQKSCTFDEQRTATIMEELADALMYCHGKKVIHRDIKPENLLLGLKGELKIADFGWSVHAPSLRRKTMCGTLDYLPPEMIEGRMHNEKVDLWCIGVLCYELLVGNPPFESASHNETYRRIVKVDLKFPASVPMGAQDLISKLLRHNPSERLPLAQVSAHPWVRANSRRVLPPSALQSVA

[5] = test system: K562; assay: Antiproliferative activity against human K562 cells after 48 hrs by CCK8 assay; format: functional, cell-based; conditions: K562, 48 h
[6] = test system: MDA-MB-231; assay: Antiproliferative activity against human MDA-MB-231 cells after 48 hrs by CCK8 assay; format: functional, cell-based; conditions: MDA-MB-231, 48 h
[7] = test system: A-431; assay: Antiproliferative activity against human A431 cells after 48 hrs by CCK8 assay; format: functional, cell-based; conditions: A-431, 48 h
[8] = test system: MCF7; assay: Antiproliferative activity against human MCF7 cells after 48 hrs by CCK8 assay; format: functional, cell-based; conditions: MCF7, 48 h
[9] = molecular target: T1, Aurora kinase A (Homo sapiens, UniProt O14965); assay: Inhibition of AURKA (unknown origin) using FAM-labeled peptide substrate preincubated for 10 mins followed by substrate addition measured after 60 mins by caliper assay
T1 sequence (O14965 whole entry): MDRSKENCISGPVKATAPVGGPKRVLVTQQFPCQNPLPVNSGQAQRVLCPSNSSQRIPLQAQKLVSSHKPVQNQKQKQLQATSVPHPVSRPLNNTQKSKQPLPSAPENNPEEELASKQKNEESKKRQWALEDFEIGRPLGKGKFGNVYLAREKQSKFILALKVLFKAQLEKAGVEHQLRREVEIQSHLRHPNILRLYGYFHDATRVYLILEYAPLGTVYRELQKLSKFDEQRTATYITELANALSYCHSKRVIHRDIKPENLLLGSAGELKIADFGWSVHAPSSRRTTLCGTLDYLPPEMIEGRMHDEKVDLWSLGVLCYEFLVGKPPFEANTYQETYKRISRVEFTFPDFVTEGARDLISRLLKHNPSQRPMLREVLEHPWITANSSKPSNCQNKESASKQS

IC50 [1]	IC50 [2]	IC50 [3]	IC50 [4]	IC50 [5]	IC50 [6]	IC50 [7]	IC50 [8]	IC50 [9]	Structure (SMILES)
24.8 nM	374 nM	252 nM	101 nM	218 nM	155 nM	136 nM	818 nM	31 nM	Cc1cc(Nc2cc(N3CCN(C)CC3)nc(Nc3ccc(Cl)c(F)c3)n2)n[nH]1
94.2 nM	507 nM	688 nM	145 nM	393 nM	238 nM	375 nM	7630 nM	35 nM	COC(=O)c1ccc(Nc2nc(Nc3cc(C)[nH]n3)cc(N3CCN(C)CC3)n2)cc1F
43.2 nM	680 nM	653 nM	75.1 nM	357 nM	255 nM	340 nM	873 nM	23 nM	Cc1cc(Nc2cc(N3CCN(C)CC3)nc(Nc3ccc(F)cc3)n2)n[nH]1
17.9 nM	299 nM	106 nM	50 nM	128 nM	84.9 nM	129 nM	552 nM	33 nM	Cc1cc(Nc2cc(N3CCN(C)CC3)nc(Nc3ccc(Cl)c(Cl)c3)n2)n[nH]1
29.9 nM	438 nM	339 nM	89.2 nM	195 nM	160 nM	177 nM	1290 nM	17 nM	Cc1cc(Nc2cc(N3CCN(C)CC3)nc(Nc3ccc(F)c(F)c3)n2)n[nH]1
33.1 nM	486 nM	317 nM	102 nM	184 nM	166 nM	201 nM	1260 nM	25 nM	Cc1cc(Nc2cc(N3CCN(C)CC3)nc(Nc3cccc(F)c3)n2)n[nH]1
